US20080280862A1, “Methods, compositions, and kits for the treatment of pain” (priority 2007, published 2008)

Tested on: TNFα
Test: TNFα secretion by human white blood cells stimulated with PMA/ionomycin, synergy score
Format: cell-based
Parameters: key: S = Σ Idata(Idata−ILoewe) × ln dilution factors; volume over Loewe additivity
Conditions: PBMC stimulated with PMA/Ionomycin
Procedure: A 100 μl suspension of diluted human white blood cells contained within each well of a polystyrene 384-well plate (NalgeNunc) was stimulated to secrete TNFα by treatment with a final concentration of 10 ng/mL phorbol 12-myristate 13-acetate (Sigma, P-1585) and 750 ng/mL ionomycin (Sigma, I-0634). Various concentrations of each test compound were added at the time of stimulation. After 16-18 hours of incubation at 37° C. in a humidified incubator, the plate was centrifuged and the supernatant transferred to a white opaque polystyrene 384-well plate (NalgeNunc, Maxisorb) coated with an anti-TNFα antibody (PharMingen, #551220). After a two-hour incubation, the plate was washed (Tecan PowerWasher 384) with PBS containing 0.1% Tween 20 and incubated for an additional one hour with another anti-TNFα antibody that was biotin labeled (PharMingen, #554511) and HRP coupled to strepavidin (PharMingen, #13047E). After the plate was washed with 0.1% Tween 20/PBS, an HRP-luminescent substrate was added to each well and light intensity measured using a LJL Analyst plate luminometer.
The synergy scores calculated for the various combinations of compounds set forth in Table 3 was calculated by the formula S=log fX log fYΣIdata(Idata−ILoewe), summed over all non-single-agent concentration pairs, and where log fX,Y are the natural logarithm of the dilution factors used for each single agent. This effectively calculates a volume between the measured and Loewe additive response surfaces, weighted towards high inhibition and corrected for varying dilution factors.

[1] = combination with Hydrocortisone

SMILES | Synergy Score based on TNF-α inhibition (combination with Betamethasone) | Synergy Score based on TNF-α inhibition (combination with Budesonide) | Synergy Score based on TNF-α inhibition (combination with Diflorasone) | Synergy Score based on TNF-α inhibition [1] | Synergy Score based on TNF-α inhibition (combination with Prednisolone) | Synergy Score based on TNF-α inhibition (combination with Triamcinolone) | Synergy Score based on TNF-α inhibition (combination with Dexamethasone) | Synergy Score based on TNF-α inhibition (combination with Clobetasol)
CN(C)CCCN1c2ccccc2CCc2ccccc21 [Imipramine] | 0.34 | 0.88 | 0.43 | 0.82 | 0.61 | 0.34 |  | 
CN(C)CCC=C1c2ccccc2C=Cc2ccccc21 [Cyclobenzaprine] | 0.29 | 0.7 |  | 0.21 | 0.36 | 0.37 | 1.2 | 
CN1CCC(=C2c3ccccc3CC(=O)c3sccc32)CC1 [Ketotifen] | 0.37 | 0.15 |  | 0.31 | 0.78 | 0.15 | 1.6 | 
CNCCCC1c2ccccc2C=Cc2ccccc21 [Protriptyline] | 0.53 | 1.2 | 0.67 | 0.68 | 1.1 | 0.37 | 1.3 | 0.95
CN(C)CCCN1c2ccccc2CCc2ccc(Cl)cc21 [Clomipramine] | 0.78 | 0.61 | 0.55 | 0.6 | 0.82 | 0.5 | 1.2 | 0.65
